From patent publication US4166114A, “Aminoglycoside antibiotic derivatives and method of use” (Shionogi & Co., Ltd., priority 1976, dated 1979) come the findings set out here.

≈ marks a conversion by molar mass, not a printed value. Where two headings read alike, the source gives them in different places.

The subject of assay [1] is Proteus vulgaris TB-162. The assay can be described thus: MIC (minimum inhibitory concentration). Format: cell-based. The note with it: tobramycin resistant organism.
For assay [2], the system named is Pseudomonas aeruginosa TB-151. Briefly: MIC (minimum inhibitory concentration). The assay is classed as cell-based. The note with it: tobramycin resistant organism.
[3] abbreviates: Proteus vulgaris, TB162, Table 3, read-out: MIC.
Where [4] appears, read: Pseudomonas aeruginosa, TB151, Table 3, read-out: MIC.
Setting [5] is: Proteus vulgaris, TB162, Table 2, read-out: MIC.
The mark [6] stands for this setting: Pseudomonas aeruginosa, TB151, Table 2, read-out: MIC.

As a reminder, the MIC is the smallest concentration in the dilution series that meets the test's criterion for growth inhibition.

As for `NC[C@H]1O[C@H](O[C@H]2[C@H](O)[C@@H](O[C@H]3O[C@H](CO)[C@@H](O)[C@H](N)[C@H]3O)[C@H](NC(=O)C3(O)CCNC3)C[C@@H]2N)[C@H](O)[C@@H](O)[C@@H]1O` (stereo partly drawn) [KM-A der., 1-N-(3-hydroxypyrrolidine-3-carbonyl)-kanamycin A], the MIC in assay [1] (setting [3]) was 3.13 µg/mL (≈ 5.24 µM); in assay [2] (setting [4]) it was 6.25 µg/mL (≈ 10.5 µM).

For the compound `NC[C@H]1O[C@H](O[C@H]2[C@H](O)[C@@H](O[C@H]3O[C@H](CO)[C@@H](O)[C@H](N)[C@H]3O)[C@H](N)C[C@@H]2N)[C@H](O)[C@@H](O)[C@@H]1O` [KM-A, kanamycin A], the MIC in assay [1] (setting [5]) is greater than 200 µg/mL; in assay [1] (setting [3]), greater than 100 µg/mL; in assay [2] (setting [6]), greater than 200 µg/mL; in assay [2] (setting [4]) it was greater than 100 µg/mL.

Regarding `CN[C@@H]1[C@@H](O)[C@@H](O[C@@H]2[C@@H](O)[C@H](O[C@H]3OC(CN)=CC[C@H]3N)[C@@H](N)C[C@H]2N)OC[C@]1(C)O` [SSM, sisomicin], the MIC was 12.5 µg/mL (≈ 27.9 µM) in assay [1] (setting [5]) and greater than 200 µg/mL in assay [2] (setting [6]).

With `NC[C@H]1O[C@H](O[C@H]2[C@H](O)[C@@H](O[C@H]3O[C@H](CO)[C@@H](O)[C@H](N)[C@H]3O)[C@H](NC(=O)C3(O)CCNCC3)C[C@@H]2N)[C@H](N)C[C@@H]1O` [TOB der.], the MIC came to 6.25 µg/mL (≈ 10.5 µM) in assay [1] (setting [5]), 1.56 µg/mL (≈ 2.62 µM) in assay [1] (setting [3]), 6.25 µg/mL (≈ 10.5 µM) in assay [2] (setting [6]) and 3.13 µg/mL (≈ 5.26 µM) in assay [2] (setting [4]).

As to `NC[C@H]1O[C@H](O[C@H]2[C@H](O)[C@@H](O[C@H]3O[C@H](CO)[C@@H](O)[C@H](N)[C@H]3O)[C@H](N)C[C@@H]2N)[C@H](N)C[C@@H]1O` [TOB, tobramycin], the MIC in assay [1] (setting [5]) came to 12.5 µg/mL (≈ 26.7 µM); in assay [1] (setting [3]), 6.25 µg/mL (≈ 13.4 µM); in assay [2] (setting [6]), 100 µg/mL (≈ 214 µM); in assay [2] (setting [4]) it was 100 µg/mL (≈ 214 µM).

gentamicin [GM]: the figures for the MIC in assay [1] (Table 2) and in assay [2] (Table 2) were 6.25 µg/mL and 100 µg/mL, respectively.
